For assay [1], the target named is Sodium-dependent serotonin transporter (Rattus norvegicus, UniProt P31652). Put plainly: In vitro binding affinity was determined against serotonin reuptake site of rat in presence of [3H]paroxetine radioligand.
In assay [2] the target is T1, Adrenergic receptor alpha-1 (Rattus norvegicus, UniProt P15823+P23944+P43140).
T1 sequence (P15823 whole entry): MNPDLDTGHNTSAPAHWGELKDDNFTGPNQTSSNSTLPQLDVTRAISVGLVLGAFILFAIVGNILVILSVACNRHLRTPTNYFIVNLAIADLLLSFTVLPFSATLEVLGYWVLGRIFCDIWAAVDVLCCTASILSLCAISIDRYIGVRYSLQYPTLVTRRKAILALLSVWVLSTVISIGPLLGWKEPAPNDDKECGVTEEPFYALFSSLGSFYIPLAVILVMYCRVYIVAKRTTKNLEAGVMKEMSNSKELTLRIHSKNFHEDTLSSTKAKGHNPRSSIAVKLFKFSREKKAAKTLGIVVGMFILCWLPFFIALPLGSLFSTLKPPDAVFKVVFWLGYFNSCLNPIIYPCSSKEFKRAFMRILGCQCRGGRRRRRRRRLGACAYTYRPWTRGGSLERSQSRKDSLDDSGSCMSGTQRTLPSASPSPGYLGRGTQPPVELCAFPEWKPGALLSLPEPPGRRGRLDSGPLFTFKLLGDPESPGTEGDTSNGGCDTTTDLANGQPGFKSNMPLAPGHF
T1 sequence (P23944 whole entry): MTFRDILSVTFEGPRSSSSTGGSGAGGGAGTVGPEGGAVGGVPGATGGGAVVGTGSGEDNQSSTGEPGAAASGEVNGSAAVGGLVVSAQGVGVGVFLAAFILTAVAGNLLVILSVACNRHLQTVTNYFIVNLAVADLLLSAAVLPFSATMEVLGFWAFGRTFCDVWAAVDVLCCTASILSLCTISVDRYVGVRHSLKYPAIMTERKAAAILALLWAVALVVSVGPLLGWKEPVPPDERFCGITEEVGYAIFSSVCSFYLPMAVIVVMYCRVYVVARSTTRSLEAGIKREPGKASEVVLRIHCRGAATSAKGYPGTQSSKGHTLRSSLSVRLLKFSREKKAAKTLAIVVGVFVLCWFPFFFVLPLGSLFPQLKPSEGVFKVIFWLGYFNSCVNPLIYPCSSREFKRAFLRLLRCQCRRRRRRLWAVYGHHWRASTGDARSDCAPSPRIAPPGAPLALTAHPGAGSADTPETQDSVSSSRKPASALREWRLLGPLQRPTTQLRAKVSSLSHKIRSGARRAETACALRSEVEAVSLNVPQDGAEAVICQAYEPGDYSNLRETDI
T1 sequence (P43140 whole entry): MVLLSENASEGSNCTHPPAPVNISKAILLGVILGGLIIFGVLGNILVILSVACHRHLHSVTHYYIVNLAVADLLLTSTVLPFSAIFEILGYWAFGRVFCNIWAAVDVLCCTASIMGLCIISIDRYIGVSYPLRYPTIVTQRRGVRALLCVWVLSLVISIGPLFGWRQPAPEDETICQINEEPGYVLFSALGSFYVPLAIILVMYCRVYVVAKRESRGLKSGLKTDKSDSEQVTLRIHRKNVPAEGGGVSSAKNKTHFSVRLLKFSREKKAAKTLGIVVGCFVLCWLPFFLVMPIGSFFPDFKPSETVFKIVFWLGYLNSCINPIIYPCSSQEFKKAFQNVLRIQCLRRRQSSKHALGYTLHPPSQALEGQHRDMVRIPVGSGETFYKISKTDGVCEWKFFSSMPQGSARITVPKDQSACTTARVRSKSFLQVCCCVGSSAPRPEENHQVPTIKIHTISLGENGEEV
In words: In vitro binding affinity against alpha-1 adrenergic receptor of rat in presence of [3H]-prazosin radioligand. It is filed as protein assay.

In assay [3] the target is Norepinephrine transporter (Rattus norvegicus, UniProt Q9WTR4). Put plainly: In vitro binding affinity was determined against NA (noradrenaline) reuptake site of rat in presence of [3H]nisoxetine radioligand.
Sequence of Norepinephrine transporter (Q9WTR4 whole entry): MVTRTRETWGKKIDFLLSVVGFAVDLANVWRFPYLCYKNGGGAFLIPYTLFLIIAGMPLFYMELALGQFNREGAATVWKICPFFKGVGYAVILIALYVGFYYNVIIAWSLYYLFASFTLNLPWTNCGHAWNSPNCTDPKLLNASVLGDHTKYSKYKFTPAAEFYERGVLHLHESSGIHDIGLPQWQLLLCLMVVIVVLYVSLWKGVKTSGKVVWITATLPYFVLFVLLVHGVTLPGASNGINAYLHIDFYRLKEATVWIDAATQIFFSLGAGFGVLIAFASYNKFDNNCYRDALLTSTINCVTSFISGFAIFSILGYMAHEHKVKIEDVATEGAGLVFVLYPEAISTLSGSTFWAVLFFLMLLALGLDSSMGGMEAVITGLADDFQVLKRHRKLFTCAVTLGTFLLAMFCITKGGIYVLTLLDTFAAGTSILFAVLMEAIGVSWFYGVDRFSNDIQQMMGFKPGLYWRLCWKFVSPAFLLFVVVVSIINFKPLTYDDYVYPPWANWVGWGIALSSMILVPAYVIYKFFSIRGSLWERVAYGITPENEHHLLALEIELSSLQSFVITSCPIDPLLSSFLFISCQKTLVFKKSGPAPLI
The target of assay [4] is T2, Adrenergic receptor alpha-2 (Rattus norvegicus, UniProt P22086+P19328+P22909).
T2 sequence (P22086 whole entry): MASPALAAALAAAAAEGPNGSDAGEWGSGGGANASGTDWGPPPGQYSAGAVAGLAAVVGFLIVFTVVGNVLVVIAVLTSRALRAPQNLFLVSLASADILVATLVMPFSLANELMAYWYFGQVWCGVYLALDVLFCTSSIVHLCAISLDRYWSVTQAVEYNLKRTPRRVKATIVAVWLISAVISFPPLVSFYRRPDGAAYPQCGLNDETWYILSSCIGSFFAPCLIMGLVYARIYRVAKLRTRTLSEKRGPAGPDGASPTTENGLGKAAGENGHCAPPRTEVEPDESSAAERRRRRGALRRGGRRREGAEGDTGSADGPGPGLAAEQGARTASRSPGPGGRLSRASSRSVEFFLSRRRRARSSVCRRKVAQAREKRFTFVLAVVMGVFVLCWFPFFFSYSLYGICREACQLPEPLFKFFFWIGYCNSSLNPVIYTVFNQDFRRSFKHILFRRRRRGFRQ
T2 sequence (P19328 whole entry): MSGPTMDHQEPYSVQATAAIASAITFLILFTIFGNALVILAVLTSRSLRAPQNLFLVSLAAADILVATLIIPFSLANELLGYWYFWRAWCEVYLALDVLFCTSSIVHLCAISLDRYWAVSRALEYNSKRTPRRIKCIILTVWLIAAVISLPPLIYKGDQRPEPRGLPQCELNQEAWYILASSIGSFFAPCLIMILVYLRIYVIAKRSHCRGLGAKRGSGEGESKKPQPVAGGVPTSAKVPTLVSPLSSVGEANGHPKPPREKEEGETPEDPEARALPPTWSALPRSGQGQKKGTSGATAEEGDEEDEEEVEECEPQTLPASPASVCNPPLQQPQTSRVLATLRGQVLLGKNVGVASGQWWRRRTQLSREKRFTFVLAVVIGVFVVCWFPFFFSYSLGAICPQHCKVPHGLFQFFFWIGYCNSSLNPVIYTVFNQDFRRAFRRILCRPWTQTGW
T2 sequence (P22909 whole entry): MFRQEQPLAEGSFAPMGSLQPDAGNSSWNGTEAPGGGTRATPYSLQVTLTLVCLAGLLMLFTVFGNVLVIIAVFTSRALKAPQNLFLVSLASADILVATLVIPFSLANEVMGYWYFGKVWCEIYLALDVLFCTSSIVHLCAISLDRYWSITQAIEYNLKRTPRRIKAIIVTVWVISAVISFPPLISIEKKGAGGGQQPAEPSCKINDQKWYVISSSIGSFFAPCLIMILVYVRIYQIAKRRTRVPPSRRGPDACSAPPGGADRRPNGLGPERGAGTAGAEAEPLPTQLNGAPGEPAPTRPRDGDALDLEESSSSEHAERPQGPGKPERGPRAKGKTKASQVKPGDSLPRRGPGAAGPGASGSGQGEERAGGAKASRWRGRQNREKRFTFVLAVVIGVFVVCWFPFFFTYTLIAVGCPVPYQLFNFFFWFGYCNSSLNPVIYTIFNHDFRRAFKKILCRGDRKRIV
Put plainly: In vitro binding affinity against alpha-2 adrenergic receptor of rat in presence of [3H]-RX 821002 radioligand. It is filed as protein assay.

Usually Ki stands for a dissociation constant, usually derived from enzyme kinetics or from competition with a known ligand.

Sequence of Sodium-dependent serotonin transporter (P31652 whole entry): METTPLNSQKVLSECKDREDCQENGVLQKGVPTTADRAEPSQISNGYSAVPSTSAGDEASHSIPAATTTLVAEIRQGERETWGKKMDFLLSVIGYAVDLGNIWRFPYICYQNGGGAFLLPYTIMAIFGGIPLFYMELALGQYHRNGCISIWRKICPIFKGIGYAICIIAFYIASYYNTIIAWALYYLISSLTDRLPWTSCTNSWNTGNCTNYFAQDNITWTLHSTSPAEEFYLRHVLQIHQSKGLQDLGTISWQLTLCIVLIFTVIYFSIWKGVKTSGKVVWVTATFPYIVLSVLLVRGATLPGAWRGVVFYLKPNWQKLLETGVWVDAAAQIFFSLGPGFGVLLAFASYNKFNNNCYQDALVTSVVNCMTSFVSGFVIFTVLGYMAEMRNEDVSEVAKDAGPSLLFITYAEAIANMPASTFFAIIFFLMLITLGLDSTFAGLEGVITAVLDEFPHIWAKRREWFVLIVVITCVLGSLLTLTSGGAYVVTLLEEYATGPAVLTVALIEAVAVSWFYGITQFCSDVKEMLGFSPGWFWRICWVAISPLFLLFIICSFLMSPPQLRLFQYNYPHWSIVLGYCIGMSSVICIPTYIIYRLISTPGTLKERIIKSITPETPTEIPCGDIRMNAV

As for `Cc1cc2c(cc1C)CC(CC1CN=CN1)C2` (configuration not stated), the Ki in assay [1] was 20 nM; in assay [3], 25.1 nM. The “Log Ki” value was -6.7 in assay [2] and -7.6 in assay [4].
Take `COc1ccc2c(c1)C=C(CC1CN=CN1)CC2` (configuration not stated): the Ki in assay [1] was 200 nM; in assay [3], > 1000 nM. Moreover, the “Log Ki” value in assay [2] is given as -5.6; in assay [4], -6.3.
Regarding `NC1=NCC(CC2=Cc3ccccc3CC2)O1` (configuration not stated), the results for the Ki in assay [1] and in assay [3] were 63.1 nM and 1000 nM, respectively. For the same molecule, the “Log Ki” value in assay [4] is reported as -6.
For `C1=NC[C@@H]([C@H]2[C@@H]3CCc4ccccc4[C@@H]32)N1`, in that order: > 3160 nM, 251 nM and -6.4.
In the case of `Cc1ccc2c(c1)C=C(CC1CN=C(N)O1)CC2` (configuration not stated), the Ki is 251 nM in assay [1] and > 1000 nM in assay [3]. The results for the “Log Ki” value in assay [2] and in assay [4] were -6.6 and -5.8, respectively.
The matching figures for `C1=NC[C@H](C2CC23Cc2ccccc2C3)N1` (some centres not stated): 50.1 nM, 31.6 nM, -6.9 and -9.1.
On to `NC1=NC(CC2=Cc3ccccc3CC2)CN1` (configuration not stated), for which the Ki is 39.8 nM in assay [1] and 79.4 nM in assay [3]. In addition, the “Log Ki” value in assay [2] is on record as -7.2; in assay [4], -6.5.
For `C[C@@]1(C[C@H]2CN=CN2)CCc2ccccc2C1`, in that order: 31.6 nM, 63.1 nM, -5.7 and -6.6.
On to `NC1=NC(CC2=Cc3ccccc3CC2)CO1` (configuration not stated), for which the Ki in assay [1] was 158 nM; in assay [3], 501 nM. In addition, the “Log Ki” value in assay [4] is given as -7.3.
`Clc1cccc2c1CC(CC1CN=CN1)CC2` (configuration not stated): the Ki in assay [1] is 5.01 nM; in assay [3] it was 100 nM. Besides, the “Log Ki” value is -6.5 in assay [2] and -8.8 in assay [4].
The matching figures for `C1=NCC(CC2COc3ccccc3O2)N1` (configuration not stated): 1260 nM, 1000 nM, -6.2 and -7.5.
Turning to `C1=NCC(CC2CCc3ccccc3C2)N1` (configuration not stated), the figures for the inhibitory constant (Ki) in assay [1] and in assay [3] were 10 nM and 100 nM, respectively. For the same molecule, the “Log Ki” value is reported as -6.1 in assay [2] and -7.8 in assay [4].
For `C1=NC[C@@]2(CC[C@@H]3Cc4ccccc4C[C@H]3C2)N1` (relative stereo), in that order: 25.1 nM, > 1000 nM, -6.2 and -6.1.
Take `Cc1ccc2c(c1)CCC(CC1CN=CN1)=C2` (configuration not stated): the Ki is 15.8 nM in assay [1] and > 1000 nM in assay [3]. Moreover, the “Log Ki” value in assay [4] is reported as -6.4.
Turning to `C1=NC[C@@H](C[C@]23CCc4ccccc4C2C3)N1` (some centres not stated), the Ki in assay [1] is 20 nM; in assay [3], 316 nM. For the same molecule, the “Log Ki” value is given as -5.9 in assay [2] and -7.2 in assay [4].
As to `C1=C(CC2=NCCN2)CCc2ccccc21` [NAPAMEZOLE], the inhibition constant (Ki) in assay [1] is 200 nM; in assay [3], > 1000 nM. For the same molecule, the entries for the “Log Ki” value in assay [2] and in assay [4] were -7 and -8.5, respectively.
The matching figures for `C1=NC[C@H](C2C[C@@]23CCc2ccccc2C3)N1` (some centres not stated): 25.1 nM, 398 nM, -6 and -6.6.
The matching figures for `C1=NCC2(CC3(Cc4ccccc4C3)C2)N1`: 6310 nM, > 10000 nM, -5.3 and -6.2.
Take `Cc1ccc2c(c1)CCC(CC1CN=C(N)O1)=C2` (configuration not stated): the Ki was 79.4 nM in assay [1] and > 1000 nM in assay [3]. In addition, in assay [4], the “Log Ki” value is listed as -5.8.
As for `C1=NC[C@@H](C2CC23Cc2ccccc2C3)N1` (some centres not stated), the results for the Ki in assay [1] and in assay [3] were 398 nM and 316 nM, respectively. Also, the “Log Ki” value was -5.2 in assay [2] and -7.1 in assay [4].
The matching figures for `Cc1ccc2c(c1)C=C(CC1CN=CN1)CC2` (configuration not stated): 63.1 nM, 1000 nM, -6.4 and -6.8.
As to `C1=NCC(Cc2cc3cc(-c4ccccc4)ccc3o2)N1` (configuration not stated), the results for the Ki in assay [1] and in assay [3] were > 10000 nM and 158 nM, respectively. The results for the “Log Ki” value in assay [2] and in assay [4] were < -5.5 and < -5, respectively.
The matching figures for `FC(F)(F)c1ccc2c(c1)C=C(CC1CN=CN1)CC2` (configuration not stated): 158 nM, > 10000 nM, -5.9 and -6.4.
With `NC1=NCC(CC2=Cc3c(Cl)cccc3CC2)O1` (configuration not stated), the “Log Ki” value in assay [2] is listed as -6.5; in assay [4], -6.2. Besides, the Ki in assay [3] is > 1000 nM.
On to `Fc1ccc2c(c1)CC(CC1CN=CN1)C2` (configuration not stated), for which the entries for the “Log Ki” value in assay [2] and in assay [4] were -6.2 and -8.1, respectively. Further, the Ki in assay [3] is 316 nM.
As for `COc1cccc2c1C=C(CC1CN=CN1)CC2` (configuration not stated), the “Log Ki” value in assay [2] is recorded as -6.8; in assay [4] it was -7.6. Further, in assay [3], the Ki was 1000 nM.
Take `C1=NCC([C@H]2[C@@H]3Cc4ccccc4C[C@@H]32)N1` (some centres not stated): the Ki in assay [1] was 631 nM. Moreover, the “Log Ki” value in assay [2] and in assay [4] was -6.3 each time.
Regarding `Fc1ccc2oc(CC3CN=CN3)cc2c1` (configuration not stated), the Ki was 158 nM in assay [1] and 794 nM in assay [3]. The “Log Ki” value in assay [4] is listed as -7.

Source of the values: ChEMBL document CHEMBL1134363 (J Med Chem, 2001).
